# Type: in vivo, rat (male Sprague-Dawley)
# Conditions: i.p.; total activity counts over 120 min after MK-801
# Method: FIG. 7 provides a graphic summary of the reversal of MK-801-induced hyperactivity using 116081 (7A) and clozapine (7B). […] 116081 produced a significant reversal of the effect of MK-801 at a dose of 25 μmol/kg (10 mg/kg). Results are presented as total activity counts over the 120 min of exposure to the locomotor activity apparatus after administration of MK-801. Data (mean±SEM) were analyzed by ANOVA followed by Dunnett's test (n=6-8/group).
# Because part of the symptomatology of schizophrenia may be related to altered glutamate transmission at the NMDA receptor, the reversal of MK-801-induced hyperlocomotor activity in rodents has been used routinely as an animal model for detecting potential antipsychotic activity (O'Neill et al., Pharmacology Biochem. Behav., 63: 237-243, 1999). Thus, this test was used to determine potential antipsychotic properties of 116081 in vivo.
# Motor activity was assessed using automated locomotor activity cages as described above (Example 11(A), supra.). Male Sprague-Dawley rats (250-350 g body weight) were administered test compounds (i.p.) and placed in the locomotor activity cages for 30 min of habituation. Following habituation,animals were administered MK-801 (0.5 μmol/kg=0.17 mg/kg, s.c.) and then immediately placed back into the locomotor activity cages, and activity was measured for 120 min. A reversal of MK-801-induced motor activity (as shown by a significant […] of ambulation) in rats is considered to be predictive of the ability of the test compound to reverse psychotic symptoms.
smiles,measurement,value
"CN1CCN(C2=Nc3cc(Cl)ccc3Nc3ccccc32)CC1 [clozapine, reference compound]",attenuation of MK-801-induced hyperactivity (ambulations),dose-dependently attenuated MK801-induced hyperactivity
